Measurements published in patent US8178690B2, “Compounds and methods for inhibiting the interaction of BCL proteins with binding partners” (Infinity Pharmaceuticals, Inc., priority 2006, dated 2012).

Columns and labels:
Bcl-2 = Bcl-2 (Homo sapiens, UniProt P10415); test: Bcl-2 binding affinity analysis (fluorescence polarization binding assay); conditions: read-out: BcI2 (Ki, Bcl-2 binding affinity)
Bcl-xL = Bcl-xL (Homo sapiens, UniProt Q07817); test: Bcl-xL binding affinity analysis (fluorescence polarization binding assay); conditions: read-out: BcI-XI (Ki, Bcl-xL binding affinity)
Bcl-xL, sequence (Q07817 whole entry): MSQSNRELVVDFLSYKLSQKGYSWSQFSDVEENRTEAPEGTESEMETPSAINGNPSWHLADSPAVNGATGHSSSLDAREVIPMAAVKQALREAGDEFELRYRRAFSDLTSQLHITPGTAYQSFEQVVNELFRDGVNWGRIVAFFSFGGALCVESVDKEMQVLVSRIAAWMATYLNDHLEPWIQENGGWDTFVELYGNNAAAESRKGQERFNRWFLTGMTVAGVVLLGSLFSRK

Bcl-2, sequence (P10415 whole entry): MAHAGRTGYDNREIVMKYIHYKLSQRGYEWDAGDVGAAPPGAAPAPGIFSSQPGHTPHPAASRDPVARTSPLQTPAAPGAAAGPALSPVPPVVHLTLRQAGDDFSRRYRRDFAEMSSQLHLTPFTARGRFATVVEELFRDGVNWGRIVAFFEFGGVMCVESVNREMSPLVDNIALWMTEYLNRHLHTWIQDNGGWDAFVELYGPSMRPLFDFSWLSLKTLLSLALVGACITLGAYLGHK

In the case of `CCOc1c(CN2O[C@@H](CO)[C@@H]([C@H](C)O)[C@H]2C(=O)N[C@H]2C[C@H]3C[C@@H]([C@@H]2C)C3(C)C)cccc1-c1cc(C(=O)N[C@@H](Cc2ccccc2)CN(C)C)cc(N(C)C)c1` [Compound 15], the Ki (Bcl-2) is reported as less than 1 nM and the Ki (Bcl-xL) is reported as less than 1000 nM.
For `COc1c(CN2O[C@@H](CO)[C@@H]([C@H](C)O)[C@H]2C(=O)N[C@H]2C[C@H]3C[C@@H]([C@@H]2C)C3(C)C)cccc1-c1cc(C(=O)N[C@@H](Cc2ccccc2)CN(C)C)cc(N(C)C)c1` [Compound 37], the Ki (Bcl-2) was less than 1 nM and the Ki (Bcl-xL) was less than 1000 nM.
`COc1c(CN2O[C@@H](CN)[C@@H]([C@H](C)O)[C@H]2C(=O)N[C@H]2C[C@H]3C[C@@H]([C@@H]2C)C3(C)C)cccc1-c1cc(C(=O)N[C@@H](Cc2cscn2)C(=O)N(C)C)cc(N(C)C)c1` [Compound 67] showed a Ki (Bcl-2) of less than 1 nM and a Ki (Bcl-xL) of 5000 to 10000 nM.
Work on `COc1c(CN2O[C@@H](CO)[C@@H]([C@H](C)O)[C@H]2C(=O)N[C@H]2C[C@H]3C[C@@H]([C@@H]2C)C3(C)C)cccc1-c1cc(C(=O)N[C@H](CN(C)C)[C@@H](NS(C)(=O)=O)c2ccccc2)cc(N(C)C)c1` [Compound 144] yielded a Ki (Bcl-2) of less than 1 nM and a Ki (Bcl-xL) of less than 1000 nM.
In the case of `COc1c(CN2O[C@@H](CN)[C@@H]([C@H](C)O)[C@H]2C(=O)N[C@H]2C[C@H]3C[C@@H]([C@@H]2C)C3(C)C)cccc1-c1cc(C(=O)N[C@@H](Cc2ccccc2)CN(C)C)cc(N(C)CCO)c1` [Compound 302], the Ki (Bcl-2) is reported as less than 1 nM and the Ki (Bcl-xL) is reported as 1000 to 5000 nM.
`COc1c(CN2O[C@@H](CO)[C@@H]([C@H](C)O)[C@H]2C(=O)N[C@H]2C[C@H]3C[C@@H]([C@@H]2C)C3(C)C)cccc1-c1cc(C(=O)N[C@@H](CC(C)C)CN(C)C)cc([N+](=O)[O-])c1` [Compound 263] gave a Ki (Bcl-2) of less than 1 nM and a Ki (Bcl-xL) of less than 1000 nM.
With `C[C@@H]1[C@@H](NC(=O)[C@@H]2[C@H]([C@H](C)O)[C@H](CO)ON2Cc2cccc(-c3cc(C(=O)N[C@@H](Cc4ccccc4)CN(C)C)cc(N(C)C)c3)c2OCCN2CCOCC2)C[C@H]2C[C@@H]1C2(C)C` [Compound 230] the Ki (Bcl-2) was less than 1 nM and the Ki (Bcl-xL) was less than 1000 nM.
For `CNC[C@H](Cc1ccccc1)NC(=O)c1cc(-c2cccc(CN3O[C@@H](CO)[C@@H]([C@H](C)O)[C@H]3C(=O)N[C@H]3C[C@H]4C[C@@H]([C@@H]3C)C4(C)C)c2OC)cc(N(C)C)c1` [Compound 165], the Ki (Bcl-2) was less than 1 nM and the Ki (Bcl-xL) was less than 1000 nM.
